# In US20110206623A1, “NOVEL DIPOLAR IONIC COMPOUNDS COMPRISING FORMULATIONS AND THE USE THEREOF” (EVONIK GOLDSCHMIDT GMBH, priority 2007, published 2011):
# Columns and labels:
# [1] = tested on: skin model (reconstructed human epidermis) damaged with SDS; assay: XTT test with an O/W cream with compound 2.1 after SDS damage; format: cell-based; details: O/W cream with compound 2.1 applied after 0.25% SDS for 40 min; 24 h incubation
# Description: (§1) In order to be able to characterize the skin care properties of the compounds 2.1 to 2.8, various in vitro tests were carried out on skin models (reconstructed human epidermis, company: SkinEthic).
# The XTT test is based on the ability of the cells to reduce the dye XTT, which can be detected photometrically. This reaction is catalyzed by mitochondrial succinate dehydrogenase and requires NAD(P)H, which can only be formed by metabolically active cells. To sum up, the XTT test describes the viability of the cells.
# The XTT test was carried out with a commercially available test kit and took place according to the manufacturer's instructions (XTT Test, Roche Diagnostics, Mannheim, Germany).
# The skin model was first damaged with 0.25% SDS for 40 min. Subsequently, the test formulations were applied. After incubating for a time of 24 h, the viability of the cells was determined using the XTT test.
# Test formulation: see Example 3.2.
# [2] = tested on: skin moisture (stratum corneum), forearms of probands; assay: In vivo moisturizer properties, corneometer, 2 hours after application; parameters: species or system human
# Description: The skin moisture is determined in normal fashion using a corneometer.
# With the corneometer principle, the skin moisture of the “outer layer” of the epidermis (stratum corneum) is determined by means of a capacity measurement. This principle is based on the fact that the dielectric constants of water and other substances differ. An appropriately shaped measuring capacitor reacts with different changes in capacity on the samples introduced into its sensing volume, which changes in capacity are recorded and evaluated fully automatically by the device. The active probe coated with special glass is pressed against the place on the skin to be measured and, after 1 second, the value measured by the corneometer, thus the degree of moisture on the skin surface, appears on the display
# For the experiments described here, use is made of a corneometer CM 825 from Courage & Khazaka. The skin moisture was measured before and 2 hours after application of the test formulations. For this, 4 test panels were each time highlighted on the forearms of 14 probands, on which the different test formulations were applied. Before each measurement, the probands had to spend at least 15 min in a climate-controlled chamber (21-22° C., 55% R.H.).
# The difference in the corneometer values before and after application of the test formulations was calculated. […]
# [3] = Water retention capacity on an IMS film; details: 5.0% in test formulation 3.7; 4 hours at 21-22° C. and 72% R.H.; in comparison with the vehicle
# Source text: The determination of the water retention capacity of active substances using the IMS film represents a simple screening test by which the moisturizing properties of active substances can be very satisfactorily investigated. The measurement is based on the following principle: The IMS film is a membrane which is covered with peptides, lipids and polymers and represents a greatly simplified skin model. The active substance interacts out of the formulation with the film. Combining with water takes place and thus the evaporation of the water is prevented or made more difficult.
# Implementation: • 1. The weight of the IMS membrane is determined (W1). • 2. The test formulation is applied, the film is again weighed (W2) and the film is subsequently incubated at 21-22° C. and 72% R.H. for 4 hours. • 3. After the 4 hours have passed, the film is again weighed (W3). • 4. The water retention capacity of the formulation (WR) is calculated as follows: […]
# [4] = tested on: skin roughness, inner side of a forearm of probands; assay: Skin roughness by tape stripping and Bradford test; format: in vivo, human; details: 2% formulation twice daily
# Source text: The skin roughness can be quantified in a simple way by means of tape stripping. The rougher the skin surface, e.g. because the skin lipid barrier is damaged, the weaker the binding of the skin cells. In some cases, with very rough skin, this can be seen with the naked eye. The outermost corneocytes are removed by tape stripping. In this connection, the more corneocytes stuck to the tape, the rougher the skin. The corneocytes are subsequently determined quantitatively using a commercially available Bradford test. This is based on the following principle: the triphenylmethane dye Coomassie Brilliant Blue G-250 (CBBG) forms complexes in acid solution both with the cationic and the nonpolar hydrophobic side chains of the proteins. […] Since the extinction coefficient of the dye/protein complex is in addition very much higher than that of the free dye, the increase in the absorption at 595 nm through the formation of the complex can be measured photometrically with high sensitivity against the free dye reagent and is a measure of the protein concentration of the solution.
# The study was carried out with 12 probands who received two test formulations, one with 2% compound 2.1 and one without. […] Tape strips were taken and analyzed before the beginning of the application and also after 2 weeks and after 4 weeks. […]
# IL-1α = assay: Anti-inflammatory action of an O/W cream with compound 2.1 (IL-1α after SDS damage); format: cell-based, human; details: O/W cream with 1% and 4% of compound 2.1 applied after SDS damage
# Description: as §1
# IL-1α is a […] which plays a central role in inflammatory reactions in the body. Sodium lauryl sulphate (SDS) is a skin-irritating surfactant which can give rise to irritant contact dermatitis in man, is used as model irritant in proband studies and, inter alia, induces the release of IL-1α. The IL-1α concentration was determined with a commercially available test kit (human IL-1α immunoassay, R&D Systems GmbH, Wiesbaden, Germany).
# It should be investigated whether the anti-inflammatory effect of the short-chain zwitterionic compounds also appears when used from a cosmetic formulation. For this, skin models were damaged with SDS. Subsequently, the test formulation with 1% and 4% of compound 2.1 was applied. The IL-1α concentration was determined 24 and 48 h after application.
# [5] = tested on: skin model (reconstructed human epidermis) damaged with SDS; assay: LDH release after damaging the cells with SDS, O/W cream; format: cell-based
# Description: as §1
# The LDH concentration was determined with a commercially available test kit (LDH test kit, Roche Diagnostics, Mannheim, Germany).
# Sodium dodecyl sulphate (SDS) is known for attacking the cell membrane and for resulting in increased LDH release. The experiment described below should investigate to what extent compound 2.1 can protect the cells after damaging with SDS.
# The skin model was damaged with SDS for 40 min. Subsequently, the test formulation, an O/W cream with 1 or 4% of compound 2.1, was applied. The LDH release was measured 24 h and 48 h after application of the test formulation.
# [6] = tested on: skin moisture, inner side of a forearm of probands; assay: Long-term moisturizing effect, corneometer, two-week study; format: in vivo, human; details: 2% in test formulation 3.9, twice daily for 2 weeks; compared with vehicle; 12 probands
# Description: In order to investigate the long-term effect of the moisturizing properties of compound 2.1, a study lasting two weeks was carried out with 12 probands. The probands received 2 formulations, one with 2% of compound 2.1 and one without active substance. They had to apply each of these formulations on the inner side of a forearm twice daily. The moisture content was measured before beginning to use and also after 2 weeks.
# The moisture content was determined using a corneometer CM 825 (Courage & Khazaka). Before each measurement, the probands had to stay in a climate-controlled chamber (21-22° C., 55% R.H.) for at least 15 min. The difference in the corneometer units with respect to the starting value was calculated each time (ΔCU).
compound,measurement,setting,value
C[N+](C)(CCCNC=O)CC(=O)[O-] [Compound 2.1],Viability of the skin cells (XTT) after damaging with SDS,[1],more than redoubled
same,Effectiveness on skin moisture with increasing concentration of use,[2]; 1.0% vs 4.0% in test formulation 3.8,clearly increased with increasing concentration of use
same,"Skin moisture, increase in corneometer units (ΔCU)","[2]; 1.0/4.0% in test formulation 3.8, 14 probands",very clearly increased
same,Water retention capacity (WR),[3],particularly strongly pronounced
same,"Skin roughness (amount of protein on tape strips, based on the vehicle), two weeks","[4]; after using for two weeks, compared with the vehicle",clear reduction
same,"Skin roughness (amount of protein on tape strips, based on the vehicle), further use",[4]; further use (after 4 weeks),even more pronounced
same,SDS-induced increase in IL-1α (overall concentration after 24 and 48 h),IL-1α,more strongly reduced in a concentration-dependent fashion
same,Effectiveness on LDH release with 4% compared with 1%,[5]; O/W cream with 4% vs 1% of compound 2.1 after SDS damage,no clear increase in the effectiveness
same,Reduction of the SDS-induced increase in LDH release (total LDH after 24 and 48 h),"[5]; O/W cream with compound 2.1 applied after 40 min SDS damage, compared with vehicle",clearly intensified
same,Moisture content (ΔCU) after 2 weeks,[6],further enhanced
